The values that follow come from US8058475B2, “Substituted cyclohexylmethyl compounds” (Gruenenthal GmbH, priority 2005, dated 2011).

What is called inhibition is the relative decrease from the control value, in per cent. What is called pKi is −log10 of the Ki, conventionally taken in molar units.

In this assay the target is human μ-opiate receptor (Homo sapiens, UniProt P35372). Put plainly: Affinity for the human μ-opiate receptor ([3H]-naloxone displacement, SPA, CHO-K1 membrane preparation). The class given is binding. The conditions noted are these: for inhibition at 1 µM: read-out: μ-Opioid receptor, % inhibition [1 μM]; for pKi: read-out: μ-Opioid receptor, Ki.
human μ-opiate receptor, sequence (P35372 whole entry): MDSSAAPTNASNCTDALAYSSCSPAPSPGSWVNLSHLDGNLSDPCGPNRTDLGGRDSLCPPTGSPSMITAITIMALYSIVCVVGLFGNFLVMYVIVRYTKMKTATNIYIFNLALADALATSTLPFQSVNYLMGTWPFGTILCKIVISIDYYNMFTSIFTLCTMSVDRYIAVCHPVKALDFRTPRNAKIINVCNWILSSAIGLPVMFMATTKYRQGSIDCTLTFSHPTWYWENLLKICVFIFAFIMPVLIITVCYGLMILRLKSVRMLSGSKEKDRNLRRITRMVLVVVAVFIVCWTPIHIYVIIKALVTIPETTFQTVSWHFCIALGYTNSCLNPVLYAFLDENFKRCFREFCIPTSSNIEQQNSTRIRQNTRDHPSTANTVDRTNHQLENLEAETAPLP

The structures appear in SMILES notation. pKi: −log10 of the molar value. Like-named read-outs stand apart in the source and are kept apart here.

Regarding `CCCCCC1(O)CCC(C(c2ccc(Cl)cc2)N(C)C)CC1` (stereo not drawn) [compound 170, 4-[(4-chloro-phenyl)-dimethylamino-methyl]-1-pentyl-cyclohexanol], for the setting “1 μM test substance, inhibition of specific [3H]-naloxone binding, 1 µM”, the “μ-Opioid receptor, % inhibition [1 μM]” value was found to be 63%.
As for `CN(C)C(c1cccc(F)c1)C1CCC(NC(=O)c2cc3ccccc3s2)CC1` (stereo not drawn) [compound 231, benzo[b]thiophene-2-carboxylic acid {4-[dimethylamino-(3-fluoro-phenyl)-methyl]-cyclohexyl}-amide], the inhibition at 1 µM was determined as 86% and the pKi is 7.35.
Regarding `CCCc1ccc(C(=O)NCC2CCC(C(c3cccs3)N(C)C)CC2)cc1` (stereo not drawn) [compound 356, N-[4-(dimethylamino-thiophen-2-yl-methyl)-cyclohexylmethyl]-4-propyl-benzamide], the inhibition at 1 µM amounted to 86% and the negative-log Ki (pKi) is 6.92.
For the molecule `CN(C)C(c1ccccc1)C1CCC(CNC(=O)Cc2ccc(Cl)cc2)CC1` (stereo not drawn) [compound 324, 2-(4-chloro-phenyl)-N-[4-(dimethylamino-phenyl-methyl)-cyclohexylmethyl]-acetamide], the inhibition at 1 µM was 95% and the pKi was 7.66.
The matching figures for `CN(C)C(c1cccs1)C1CCC(CNC(=O)c2cccc(Br)c2)CC1` (stereo not drawn) [compound 307, 3-bromo-N-[4-(dimethylamino-thiophen-2-yl-methyl)-cyclohexylmethyl]-benzamide]: 98% and 8.21.
Taken in the same sequence, the figures for `CN(C)C(c1cccc(F)c1)C1CCC(CNC(=O)CC(C)(C)C)CC1` (stereo not drawn) [compound 295, N-{4-[dimethylamino-(3-fluoro-phenyl)-methyl]-cyclohexylmethyl}-3,3-dimethyl-butyramide] were 101% and 8.14.
Take `CCCc1ccc(C(=O)NC2CCC(C(c3cccs3)N(C)C)CC2)cc1` (stereo not drawn) [compound 185, N-[4-(dimethylamino-thiophen-2-yl-methyl)-cyclohexyl]-4-propyl-benzamide]: the inhibition at 1 µM was determined as 100% and the negative-log Ki (pKi) is 7.43.
`CN(C)C(c1cccc(F)c1)C1CCC(CCNC(=O)c2c(F)cccc2F)CC1` (stereo not drawn) [compound 462, N-(2-{4-[dimethylamino-(3-fluoro-phenyl)-methyl]-cyclohexyl}-ethyl)-2,6-difluoro-benzamide]: the inhibition at 1 µM was 91% and the pKi was 7.26.
Taken in the same sequence, the figures for `CN(C)C(c1ccccc1)C1CCC(NC(=O)c2cccc(Br)c2)CC1` (stereo not drawn) [compound 197, 3-bromo-N-[4-(dimethylamino-phenyl-methyl)-cyclohexyl]-benzamide] were 96% and 7.80.
The matching figures for `CN(C)C(c1ccccc1)C1CCC(NC(=O)c2scc(S(C)(=O)=O)c2Cl)CC1` (stereo not drawn) [compound 252, 3-chloro-4-methanesulfonyl-thiophene-2-carboxylic acid [4-(dimethylamino-phenyl-methyl)-cyclohexyl]-amide]: 81% and 7.70.
Taken in the same sequence, the figures for `Cc1oc(-c2ccc(Cl)cc2)cc1C(=O)NC1CCC(C(c2cccs2)N(C)C)CC1` (stereo not drawn) [compound 229, 5-(4-chloro-phenyl)-2-methyl-furan-3-carboxylic acid [4-(dimethylamino-thiophen-2-yl-methyl)-cyclohexyl]-amide] were 86% and 7.41.
Consider `Cc1onc(-c2c(Cl)cccc2Cl)c1C(=O)NCCC1CCC(C(c2cccs2)N(C)C)CC1` (stereo not drawn) [compound 469, 3-(2,6-dichloro-phenyl)-5-methyl-isoxazole-4-carboxylic acid {2-[4-(dimethylamino-thiophen-2-yl-methyl)-cyclohexyl]-ethyl}-amide], for which the inhibition at 1 µM came to 87% and the pKi was 7.24.
Regarding `CCC(C)C(=O)NCC1CCC(C(c2ccccc2)N(C)C)CC1` (stereo not drawn) [compound 387, N-[4-(dimethylamino-phenyl-methyl)-cyclohexylmethyl]-2-methyl-butyramide], the inhibition at 1 µM stood at 81% and the pKi is 7.15.
Taken in the same sequence, the figures for `CCCc1ccc(C(=O)NCCC2CCC(C(c3cccs3)N(C)C)CC2)cc1` (stereo not drawn) [compound 443, N-{2-[4-(dimethylamino-thiophen-2-yl-methyl)-cyclohexyl]-ethyl}-4-propyl-benzamide] were 96% and 7.40.
Taken in the same sequence, the figures for `COc1c(C(=O)NCCC2CCC(C(CCc3ccccc3)N(C)C)CC2)csc1Cl` (stereo not drawn) [compound 476, 5-chloro-4-methoxy-thiophene-3-carboxylic acid {2-[4-(1-dimethylamino-3-phenyl-propyl)-cyclohexyl]-ethyl}-amide] were 87% and 7.08.
Taken in the same sequence, the figures for `COc1cccc(C(=O)NCC2CCC(C(c3ccc(Cl)cc3)N(C)C)CC2)c1` (stereo not drawn) [compound 393, N-{4-[(4-chloro-phenyl)-dimethylamino-methyl]-cyclohexylmethyl}-3-methoxy-benzamide] were 80% and 7.36.
On to `CSc1ncccc1C(=O)NCC1CCC(C(c2ccc(F)cc2)N(C)C)CC1` (stereo not drawn) [compound 381, N-{4-[dimethylamino-(4-fluoro-phenyl)-methyl]-cyclohexylmethyl}-2-methyl-sulfanyl-nicotinamide], for which the “μ-Opioid receptor, % inhibition [1 μM]” value amounted to 83% and the pKi is 7.00.
Consider `CN(C)C(c1cccc(F)c1)C1CCC(CNC(=O)C2(c3ccc(Cl)cc3)CCCC2)CC1` (stereo not drawn) [compound 327, 1-(4-chloro-phenyl)-cyclopentane-carboxylic acid {4-[dimethylamino-(3-fluoro-phenyl)-methyl]-cyclohexylmethyl}-amide], for which the inhibition at 1 µM was found to be 94% and the pKi was 7.20.
With `CN(C)C(c1ccccc1)C1CCC(NC(=O)c2cc(F)ccc2C(F)(F)F)CC1` (stereo not drawn) [compound 281, N-[4-(dimethylamino-phenyl-methyl)-cyclohexyl]-5-fluoro-2-trifluoromethyl-benzamide], the inhibition at 1 µM was 73% and the negative-log Ki (pKi) was 7.34.
Taken in the same sequence, the figures for `CN(C)C(c1cccc(F)c1)C1CCC(NC(=O)CC(C)(C)C)CC1` (stereo not drawn) [compound 251, N-{4-[dimethylamino-(3-fluoro-phenyl)-methyl]-cyclohexyl}-3,3-dimethyl-butyramide] were 81% and 7.04.
Take `CN(C)C(c1cccc(F)c1)C1CCC(NC(=O)c2ccc3nsnc3c2)CC1` (stereo not drawn) [compound 290, benzo[1,2,5]thiadiazole-5-carboxylic acid {4-[dimethylamino-(3-fluoro-phenyl)-methyl]-cyclohexyl}-amide]: the inhibition at 1 µM is 70%.
With `COc1c(C(=O)NCC2CCC(C(c3ccc(F)cc3)N(C)C)CC2)csc1Cl` (stereo not drawn) [compound 376, 5-chloro-4-methoxy-thiophene-3-carboxylic acid {4-[dimethylamino-(4-fluoro-phenyl)-methyl]-cyclohexylmethyl}-amide], the inhibition at 1 µM came out at 84% and the negative-log Ki (pKi) was 7.40.
For the molecule `CN(C)C(c1cccc(F)c1)C1CCC(NC(=O)Cc2ccccc2)CC1` (stereo not drawn) [compound 240, N-{4-[dimethylamino-(3-fluoro-phenyl)-methyl]-cyclohexyl}-2-phenyl-acetamide], the inhibition at 1 µM amounted to 82% and the pKi is 7.29.
For the molecule `CN(C)C(c1ccccc1)C1CCC(NC(=O)c2cncc(Br)c2)CC1` (stereo not drawn) [compound 259, 5-bromo-N-[4-(dimethylamino-phenyl-methyl)-cyclohexyl]-nicotinamide], the negative-log Ki (pKi) was 7.21. Moreover, for the setting “1 µM”, the “μ-Opioid receptor, % inhibition [1 μM]” value is given as 79%.
`CCn1nc(C)c(Br)c1C(=O)NC1CCC(C(c2cccs2)N(C)C)CC1` (stereo not drawn) [compound 260, 4-bromo-2-ethyl-5-methyl-2H-pyrazole-3-carboxylic acid [4-(dimethylamino-thiophen-2-yl-methyl)-cyclohexyl]-amide]: the inhibition at 1 µM turned out to be 78%.
Turning to `CN(C)C(c1ccccc1)C1CCC(CNC(=O)c2csc3ccccc23)CC1` (stereo not drawn) [compound 292, benzo[b]thiophene-3-carboxylic acid [4-(dimethylamino-phenyl-methyl)-cyclohexylmethyl]-amide], the inhibition at 1 µM was determined as 102% and the negative logarithm of the Ki (pKi) is 8.89.
Taken in the same sequence, the figures for `CN(C)C(c1ccccc1)C1CCC(CNC(=O)c2cccc(C(F)(F)F)c2)CC1` (single isomer, unassigned) [compound 326, N-[4-(dimethylamino-phenyl-methyl)-cyclohexylmethyl]-3-trifluoromethyl-benzamide] were 94% and 7.96.
Taken in the same sequence, the figures for `Cc1ccccc1C(=O)NCCC1CCC(C(c2ccc(Cl)cc2)N(C)C)CC1` (stereo not drawn) [compound 419, N-(2-{4-[(4-chloro-phenyl)-dimethylamino-methyl]-cyclohexyl}-ethyl)-2-methyl-benzamide] were 86% and 7.49.
Regarding `CN(C)C(c1cccs1)C1CCC(NC(=O)c2cc(Cl)cc(Cl)c2)CC1` (stereo not drawn) [compound 194, 3,5-dichloro-N-[4-(dimethylamino-thiophen-2-yl-methyl)-cyclohexyl]-benzamide], the inhibition at 1 µM turned out to be 96% and the pKi is 8.28.
The matching figures for `CN(C)C(c1ccccc1)C1CCC(NC(=O)COCc2ccccc2)CC1` (stereo not drawn) [compound 254, 2-benzyloxy-N-[4-(dimethylamino-phenyl-methyl)-cyclohexyl]-acetamide]: 80% and 7.25.
Taken in the same sequence, the figures for `CN(C)C(c1ccc(F)cc1)C1CCC(NC(=O)c2ccc(F)c(Cl)c2)CC1` (stereo not drawn) [compound 280, 3-chloro-N-{4-[dimethylamino-(4-fluoro-phenyl)-methyl]-cyclohexyl}-4-fluoro-benzamide] were 73% and 6.51.
As for `CN(C)C(c1ccc(F)cc1)C1CCC(NC(=O)c2cc(F)c(F)cc2F)CC1` (stereo not drawn) [compound 271, N-{4-[dimethylamino-(4-fluoro-phenyl)-methyl]-cyclohexyl}-2,4,5-trifluoro-benzamide], the inhibition at 1 µM was found to be 75% and the pKi is 7.72.
Turning to `CN(C)C(c1ccccc1)C1CCC(CCNC(=O)Cc2ccccc2)CC1` (stereo not drawn) [compound 451, N-{2-[4-(dimethylamino-phenyl-methyl)-cyclohexyl]-ethyl}-2-phenyl-acetamide], the inhibition at 1 µM was found to be 92% and the pKi is 7.62.
